Source: publication PMC8342417, “The structure of an archaeal oligosaccharyltransferase provides insight into the strict exclusion of proline from the N-glycosylation sequon” (Communications Biology, 2021)

Molecular target: T1, AfAglB (AglB-L, A. fulgidus oligosaccharyltransferase) (Archaeoglobus fulgidus, UniProt O29867, G617C)
T1 construct: gene aglB3; full length 868 residues; E. coli C43(DE3); C-terminal His10 cut by thrombin leaving ELALVPR; single-subunit membrane protein in DDM, then LCP
T1 sequence (O29867 whole entry G617C): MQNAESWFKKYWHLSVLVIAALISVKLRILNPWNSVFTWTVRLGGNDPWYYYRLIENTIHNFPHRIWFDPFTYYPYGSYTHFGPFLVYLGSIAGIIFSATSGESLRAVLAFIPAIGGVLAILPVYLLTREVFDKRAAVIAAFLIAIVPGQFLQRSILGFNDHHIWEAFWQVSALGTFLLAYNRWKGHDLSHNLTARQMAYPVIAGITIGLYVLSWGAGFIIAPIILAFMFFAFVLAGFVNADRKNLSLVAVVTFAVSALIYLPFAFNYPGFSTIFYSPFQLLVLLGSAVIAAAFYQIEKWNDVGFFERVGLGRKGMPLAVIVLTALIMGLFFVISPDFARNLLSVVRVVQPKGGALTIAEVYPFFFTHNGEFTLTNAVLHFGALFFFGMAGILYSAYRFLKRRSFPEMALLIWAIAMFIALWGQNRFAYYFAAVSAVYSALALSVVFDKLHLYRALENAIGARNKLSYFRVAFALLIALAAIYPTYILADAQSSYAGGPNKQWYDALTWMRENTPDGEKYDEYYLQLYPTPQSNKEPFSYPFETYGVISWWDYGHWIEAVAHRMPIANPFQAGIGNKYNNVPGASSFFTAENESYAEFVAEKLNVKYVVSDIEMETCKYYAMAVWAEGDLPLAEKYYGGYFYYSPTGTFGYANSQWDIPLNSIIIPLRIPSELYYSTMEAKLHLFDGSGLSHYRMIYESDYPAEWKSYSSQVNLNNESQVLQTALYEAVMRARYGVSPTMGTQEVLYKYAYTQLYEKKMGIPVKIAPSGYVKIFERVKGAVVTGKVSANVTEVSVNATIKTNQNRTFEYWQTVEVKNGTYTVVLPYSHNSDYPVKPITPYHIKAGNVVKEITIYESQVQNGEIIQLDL
Experiment: X-ray crystal structure (LCP), […] Å
Format: binding
Conditions: ternary complex with disulfide-tethered peptide TAMRA-APY(Dab)VTASCR and Mn2+; pH 6.0; LLO donor site; from hydrolysis of native LLO mixture (C55 and C60) during crystallization, modelled as C60

C/C(=C/CC/C(C)=C\CC/C(C)=C\CC/C(C)=C/CC/C(C)=C\CC/C(C)=C\CC[C@H](C)CCOP(=O)(O)O)CC/C=C(/C)CC/C=C(/C)CCCC(C)CCCC(C)CCCC(C)C (stereo partly shown) [dolichol-phosphate]
X-ray crystal structure (LCP), 2.7 Å: LLO binding site was occupied by a dolichol-phosphate, instead of an intact LLO
